Results as given in patent US20130210039A1, “BLOOD INSULIN RESISTANCE AND DIABETES MARKER PROGRANULIN, METHOD FOR ANALYZING CONCENTRATION OF PROGRANULIN IN BLOOD SAMPLE, AND METHOD FOR SCREENING FOR SUBSTANCE THAT IMPROVES INSULIN RESISTANCE AND IMPROVES OR SUPPRESSES DIABETES” (priority 2010, published 2013).

Experiments:
progranulin (PGRN) mRNA = assay: Progranulin mRNA expression in adipose tissues of ob/ob mice orally administered pioglitazone; assay type: in vivo; conditions: ten-week-old ob/ob mice, 30 mg/kg orally every day for 1 week, mean±S.D.
Description: Adipose tissues (mesenteric fat tissue (MF), epididymal fat tissue (EF), and subcutaneous adipose tissue (SC)) were extracted from seven-week-old ob/ob mice and ob/+ mice and subjected to real-time PCR analysis to determine the expression levels of mRNA for progranulin (PGRN).
(§1) Ten-week-old ob/ob mice were orally administered with 30 mg/kg of a thiazolidine derivative (pioglitazone) every day for 1 week. An oral glucose tolerance test (OGTT) was performed on these mice and a control group (Vehicle) administered with only a solvent (10% (w/v) carboxymethyl cellulose).
In FIG. 8, the horizontal axis represents the type of adipose tissue (epididymal fat tissue (EF), mesenteric fat tissue (MF), subcutaneous adipose tissue (SC) (white adipose tissue (WAT) and brown adipose tissue (BAT)), the vertical axis represents the relative expression level of progranulin mRNA (relative PRGN mRNA expression), “Vehicle” represents the control group, and “Pio” represents the pioglitazone administration group.

progranulin (PGRN) = assay: Serum progranulin concentration in ob/ob mice orally administered pioglitazone (ELISA); assay type: in vivo; conditions: ten-week-old ob/ob mice, 30 mg/kg orally every day for 1 week; mean±S.D., n=5; p<0.05 vs Vehicle (2.57±0.28)
Description: Blood samples were collected from seven-week-old ob/ob mice and ob/+ mice, allowed to stand at room temperature, and centrifuged to prepare serum samples. Serum progranulin concentrations were measured by ELISA.
as §1
In FIG. 9, the horizontal axis represents the type of group to be measured (pioglitazone administration group (Pio), control group (Vehicle), and ob/+ mice) and the vertical axis represents the serum progranulin concentration (Serum PGRN conc.) (μg/mL).

cultured adipocytes = cultured adipocytes treated with the substance alone; cited from earlier work
Akt protein = conditions: cultured adipose cells treated with progranulin protein, under insulin stimulation; cited from earlier work

CCc1ccc(CCOc2ccc(CC3SC(=O)NC3=O)cc2)nc1 (stereo not drawn) [pioglitazone]
expression level of mRNA for progranulin in mesenteric fat tissue (MF) (progranulin (PGRN) mRNA; p<0.01 vs Vehicle): 0.42±0.11 times that of the control group | expression level of mRNA for progranulin in epididymal fat tissue (EF) (progranulin (PGRN) mRNA; p<0.05 vs Vehicle): 0.74±0.06 times that of the control group | expression level of mRNA for progranulin in subcutaneous adipose tissue (SC) (white adipose tissue (WAT)) (progranulin (PGRN) mRNA; p<0.05 vs Vehicle): 0.61±0.07 times that of the control group | serum progranulin concentration (progranulin (PGRN)): 1.86 ± 0.10 µg/mL

TNF-α
expression level of progranulin (cultured adipocytes): increased

B1: progranulin protein: granulin precursor protein having seven kinds of granulin domains; insulin resistance marker (protein)
chain: MWTLVSWVALTAGLVAGTRCPDGQFCPVACCLDPGGASYSCCRPLLDKWPTTLSRHLGGPCQVDAHCSAGHSCIFTVSGTSSCCPFPEAVACGDGHHCCPRGFHCSADGRSCFQRSGNNSVGAIQCPDSQFECPDFSTCCVMVDGSWGCCPMPQASCCEDRVHCCPHGAFCDLVHTRCITPTGTHPLAKKLPAQRTNRAVALSSSVMCPDARSRCPDGSTCCELPSGKYGCCPMPNATCCSDHLHCCPQDTVCDLIQSKCLSKENATTDLLTKLPAHTVGDVKCDMEVSCPDGYTCCRLQSGAWGCCPFTQAVCCEDHIHCCPAGFTCDTQKGTCEQGPHQVPWMEKAPAHLSLPDPQALKRDVPCDNVSSCPSSDTCCQLTSGEWGCCPIPEAVCCSDHQHCCPQGYTCVAEGQCQRGSEIVAGLEKMPARRASLSHPRDIGCDQHTSCPVGQTCCPSLGGSWACCQLPHAVCCEDRQHCCPAGYTCNVKARSCEKEVVSAQPATFLARSPHVGVKDVECGEGHFCHDNQTCCRDNRQGWACCPYRQGVCCADRRHCCPAGFRCAARGTKCLRREAPRWDAPLRDPALRQLL
modifications: human
notes: granulin precursor protein having seven kinds of granulin domains; insulin resistance marker
activity of Akt protein activated downstream of an insulin receptor (Akt protein): significantly suppressed
